Values joined by “and” are separate entries in the source; they are usually repeats but may differ in a detail not shown here. Equal values may be shown once. Where a name gives a salt, the structure may show the parent alone. Read-outs that look alike come from different tables or passages of the source.
Assays:
[1] = system: 2019-nCoV pseudovirus; assay type: cell-based, SARS-CoV-2
[2] = biological target: 2019-nCoV S protein–hACE2 complex (Severe acute respiratory syndrome coronavirus 2, UniProt P0DTC2); assay type: cell-based, SARS-CoV-2; human
[3] = system: HEK293T cells; assay type: cell-based
[4] = biological target: 2019-nCoV S-RBD (Severe acute respiratory syndrome coronavirus 2, UniProt P0DTC2); assay type: binding, SARS-CoV-2
[5] = biological target: 2019-nCoV S protein (Severe acute respiratory syndrome coronavirus 2, UniProt P0DTC2); assay type: binding, SARS-CoV-2; settings: for ΔTm: 100 µM
[6] = system: Delta (B.1.617.2) pseudovirus; assay type: cell-based, SARS-CoV-2
[7] = system: Omicron BA.5 pseudovirus; assay type: cell-based, SARS-CoV-2
[8] = read-out: KD (equilibrium dissociation constant)
[9] = read-out: IC50 (concentration inducing 50% cell death)

Row | Compound | Effect on pseudovirus entry [1] | IC50 [1] | Reduction in S-protein pull-downs [2] | Reduction in hACE2 pull-downs [2] | Cell viability [3] | CC50 ([3]; read-out: Cytotoxicity CC50) | Kd ([4]; read-out: KD) | Kd [4, 8] | Kd ([4]; read-out: Mean KD ± SD) | CETSA classification [5] | Fold-change ratio of soluble S-protein band intensity relative to controls [5] | ΔTm [5] | Effect on pseudovirus entry [6] | IC50 [6] | Effect on pseudovirus entry [7] | IC50 [7] | Tm [5] | further results
1 | CC(OC(=O)OC1CCCCC1)OC(=O)C1=C(CSc2nnnn2CC[NH+](C)C)CSC2C(NC(=O)Cc3csc(N)n3)C(=O)N12 (centres unmarked) [CTM-HCl, cefotiam hexetil hydrochloride] | reduced entry of the ancestral and Omicron strains in a concentration-dependent manner | 94.6 µM | 32.5% | 7.9% | above 90% | > 100 µM | 142 µM | 142 µM | 142 µM | CETSA-positive | 1.64 ± 0.21 | +2.2 °C | marginal and detectable only at 50 μM | > 100 µM | reduced entry of the ancestral and Omicron strains in a concentration-dependent manner | > 100 µM | – | Selectivity Index (SI) [1]: > 1.06
2 | CCCCCCCCC=CCCCCCCCC(=O)OCC(C[N+](C)(C)C)OC(=O)CCCCCCCC=CCCCCCCCC (centres unmarked) [DOTAP, DOTAP chloride] | at 25 μM reduced the entry of 2019-nCoV and Omicron pseudoviruses | > 100 µM | 51.4% | 46.8% | above 90% | – | 79 µM | 49.9 µM | 64.5 ± 20.6 µM | CETSA-positive | 3.49 ± 0.50 | +9.1 °C | limited efficacy against the Delta variant | > 100 µM | at 25 μM reduced the entry of 2019-nCoV and Omicron pseudoviruses | > 100 µM | – | –
3 | CC(=O)NC1C(OC2c3ccc(c(Cl)c3)Oc3cc4cc(c3OC3OC(CO)C(O)C(O)C3NC(=O)CCCCCCC(C)C)Oc3ccc(cc3Cl)CC3NC(=O)C(N)c5ccc(O)c(c5)Oc5cc(O)cc(c5)C(NC3=O)C(=O)NC4C(=O)NC3C(=O)NC2C(=O)NC(C(=O)O)c2cc(O)cc(OC4OC(CO)C(O)C(O)C4O)c2-c2cc3ccc2O)OC(CO)C(O)C1O (centres unmarked) [teicoplanin] | effective against the ancestral strain at 25–50 μM | > 100 µM | 52.2% | 54.4% | above 90% | > 100 µM | – | – | – | did not meet the positive threshold | – | −4.0 °C | observed only at 100 μM | > 100 µM | reduced Omicron pseudovirus entry in a concentration-dependent manner | > 100 µM | – | –
4 | Bacitracin zinc [BZ] | – | – | 61.8% | 95.7% | – | – | – | 11.4 µM | – | – | – | −6.1 °C | – | – | – | – | 43.4 °C | CC50 [3, 9]: 79.9 µM
5 | DDAVP | – | – | – | – | – | – | – | – | – | – | – | −0.7 °C | – | – | – | – | 48.9 °C | –
6 | angiotensin II [Ang II] | – | – | – | – | above 90% | – | – | 30.7 µM | – | – | – | +5.8 °C | – | – | – | – | 55.4 °C | Effect on S-RBD/hACE2 co-immunoprecipitation [2]: did not appreciably reduce
7 | melittin | reduced entry of all three pseudoviruses at 1.25 μM | 1.83 µM | 85.1% | 65.8% | – | 2.3 µM | 57 µM and 34.1 µM and 56.8 µM | 35 µM | 49.6 ± 12.2 µM | did not meet the positive threshold | 2.70 ± 0.52 | +0.7 °C | reduced entry of all three pseudoviruses at 1.25 μM | 1.99 µM | reduced entry of all three pseudoviruses at 1.25 μM | > 1.25 µM | – | Selectivity Index (SI) [1]: 1.26; Therapeutic index (SI) [1]: ~ 1.2; CC50 [3, 9]: 2.3 µM; Selectivity Index (SI) [6]: 1.16; Selectivity Index (SI) [7]: < 1.84

Source: paper PMC13607727 (International Journal of Molecular Sciences, 2026)
